Data set [1] in a line: Toxicity to mouse RBC assessed as hemolytic activity at 100 uM. It counts as cell-based, Erythrocyte. The note with it: red blood cells, read-out: Activity.
The test system of a further data set is Salmonella typhimurium. Nature of the data set: Antibacterial activity against Salmonella Typhimurium ATCC 13311. It counts as functional, Salmonella enterica subsp. enterica serovar Typhimurium. As to conditions: Salmonella enterica.
Another data set has as its system Mycobacterium. The data set can be described thus: Antibacterial activity against Mycobacterium ranae ATCC 110. It counts as functional.
A further data set has as its system Staphylococcus aureus. Nature of the data set: Antibacterial activity against methicillin/gentamicin/tetracycline resistant Staphylococcus aureus ATCC 33592. It counts as functional.

Values after ≈ are worked out from the molar mass of the structure shown. Active and inactive are the calls of the source. No cut-off for these calls is given here. Non-standard residues stand in square brackets, D forms with d. Residues, ends and D or L forms follow the SMILES beside them. ξ: configuration not given here. Phe(4-NO2) = N[C@@H](Cc1ccc([N+](=O)[O-])cc1)C(=O)O; Pro(3ξ,4ξ-(CH2)4) = O=C(O)[C@H]1NCC2CCCCC21; Oic = O=C(O)[C@@H]1C[C@@H]2CCCC[C@@H]2N1; Pro(3,4-benzo) = O=C(O)[C@H]1NCc2ccccc21; Tic = O=C(O)[C@@H]1Cc2ccccc2CN1; βAla = NCCC(=O)O

For eleven compounds, hemolysis, MIC and Activity results are on record in ChEMBL document CHEMBL1145395, “De novo design of selective antibiotic peptides by incorporation of unnatural amino acids” (J Med Chem, 2007).

One may read the MIC as the lowest concentration found to suppress growth. Read a high MIC as a less susceptible organism.

In the case of `CC(C)C[C@H](NC(=O)CNC(=O)[C@H](CCCCN)NC(=O)CN)C(=O)N1Cc2ccccc2C[C@H]1C(=O)N1CC2CCCCC2[C@H]1C(=O)NCC(=O)N[C@@H](CCCCN)C(=O)N1Cc2ccccc2C[C@H]1C(=O)N1CC2CCCCC2[C@H]1C(=O)NCC(=O)N[C@@H](Cc1ccccc1)C(=O)N1Cc2ccccc2C[C@H]1C(=O)N1CC2CCCCC2[C@H]1C(=O)NCC(=O)N[C@@H](CCCCN)C(=O)N1Cc2ccccc2C[C@H]1C(=O)N1CC2CCCCC2[C@H]1C(=O)NCC(=O)N[C@@H](Cc1ccccc1)C(=O)N1Cc2ccccc2C[C@H]1C(=O)N1CC2CCCCC2[C@H]1C(=O)NCC(=O)N[C@@H](CCCCN)C(=O)N1Cc2ccccc2C[C@H]1C(=O)N1CC2CCCCC2[C@H]1C(=O)NCC(=O)N[C@@H](CCCCN)C(=O)N[C@@H](CCCNC(=N)N)C(N)=O` (some centres not stated) (H-GKGL[Tic][Pro(3ξ,4ξ-(CH2)4)]GK[Tic][Pro(3ξ,4ξ-(CH2)4)]GF[Tic][Pro(3ξ,4ξ-(CH2)4)]GK[Tic][Pro(3ξ,4ξ-(CH2)4)]GF[Tic][Pro(3ξ,4ξ-(CH2)4)]GK[Tic][Pro(3ξ,4ξ-(CH2)4)]GKR-NH2), the hemolysis at 100 µM in data set [1] amounted to 33.4%.

`CSCC[C@H](NC(=O)[C@H](CC(C)C)NC(=O)[C@H](CCC(=O)O)NC(=O)[C@@H]1c2ccccc2CN1C(=O)[C@@H]1Cc2ccccc2CN1C(=O)[C@H](Cc1ccccc1)NC(=O)CCNC(=O)[C@@H]1c2ccccc2CN1C(=O)[C@@H]1Cc2ccccc2CN1C(=O)[C@H](CCCCN)NC(=O)CCNC(=O)[C@@H]1c2ccccc2CN1C(=O)[C@@H]1Cc2ccccc2CN1C(=O)[C@H](Cc1ccccc1)NC(=O)CCNC(=O)[C@@H]1c2ccccc2CN1C(=O)[C@@H]1Cc2ccccc2CN1C(=O)[C@H](CCCCN)NC(=O)CCNC(=O)CCNC(=O)CNC(=O)[C@H](CC(C)C)NC(=O)CNC(=O)[C@H](CCCCN)NC(=O)CNC(=O)[C@@H](N)CCC(=O)O)C(=O)N[C@@H](CC(N)=O)C(=O)N[C@@H](CO)C(N)=O` (H-EGKGLG[βAla][βAla]K[Tic][Pro(3,4-benzo)][βAla]F[Tic][Pro(3,4-benzo)][βAla]K[Tic][Pro(3,4-benzo)][βAla]F[Tic][Pro(3,4-benzo)]ELMNS-NH2): in data set [1], the hemolysis at 100 µM stood at 27%.

`CC(=O)NCC(=O)N[C@@H](Cc1ccc([N+](=O)[O-])cc1)C(=O)N1Cc2ccccc2C[C@H]1C(=O)N1CC2CCCCC2[C@H]1C(=O)NCC(=O)N[C@@H](CCCCN)C(=O)N1Cc2ccccc2C[C@H]1C(=O)N1CC2CCCCC2[C@H]1C(=O)NCC(=O)N[C@@H](Cc1ccc([N+](=O)[O-])cc1)C(=O)N1Cc2ccccc2C[C@H]1C(=O)N1CC2CCCCC2[C@H]1C(=O)NCC(=O)N[C@@H](CCCCN)C(=O)N1Cc2ccccc2C[C@H]1C(=O)N[C@@H](CCCCN)C(=O)N[C@@H](CCCCN)C(=O)N[C@@H](CCCCN)C(=O)N[C@@H](CCCCN)C(N)=O` (some centres not stated) (Ac-G[Phe(4-NO2)][Tic][Pro(3ξ,4ξ-(CH2)4)]GK[Tic][Pro(3ξ,4ξ-(CH2)4)]G[Phe(4-NO2)][Tic][Pro(3ξ,4ξ-(CH2)4)]GK[Tic]KKKK-NH2): the values for the MIC with Salmonella typhimurium, in the data set with Mycobacterium and in the data set with Staphylococcus aureus were 30 µM (≈ 75.9 µg/mL), 10 µM (≈ 25.3 µg/mL) and 10 µM (≈ 25.3 µg/mL), respectively.

Regarding `CC(C)C[C@H](NC(=O)CNC(=O)[C@H](CCCCN)NC(=O)CN)C(=O)N1Cc2ccccc2C[C@H]1C(=O)N1[C@H](C(=O)NCC(=O)N[C@@H](CCCNC(=N)N)C(=O)N2Cc3ccccc3C[C@H]2C(=O)N2[C@H](C(=O)NCC(=O)N[C@@H](Cc3ccccc3)C(=O)N3Cc4ccccc4C[C@H]3C(=O)N3[C@H](C(=O)NCC(=O)N[C@@H](CCCNC(=N)N)C(=O)N4Cc5ccccc5C[C@H]4C(=O)N4[C@H](C(=O)NCC(=O)N[C@@H](Cc5ccccc5)C(=O)N5Cc6ccccc6C[C@H]5C(=O)N5[C@H](C(=O)NCC(=O)N[C@@H](CCCNC(=N)N)C(=O)N6Cc7ccccc7C[C@H]6C(=O)N6[C@H](C(=O)NCC(=O)N[C@@H](CCCCN)C(=O)N[C@@H](CCCNC(=N)N)C(N)=O)C[C@@H]7CCCC[C@@H]76)C[C@@H]6CCCC[C@@H]65)C[C@@H]5CCCC[C@@H]54)C[C@@H]4CCCC[C@@H]43)C[C@@H]3CCCC[C@@H]32)C[C@@H]2CCCC[C@@H]21` (H-GKGL[Tic][Oic]GR[Tic][Oic]GF[Tic][Oic]GR[Tic][Oic]GF[Tic][Oic]GR[Tic][Oic]GKR-NH2), in data set [1], the hemolysis at 100 µM was 100%.

Consider `CC(C)C[C@H](NC(=O)CNC(=O)[C@H](CCCCN)NC(=O)CN)C(=O)N1Cc2ccccc2C[C@H]1C(=O)N1CC2CCCCC2[C@H]1C(=O)NCC(=O)N[C@@H](CCCCN)C(=O)N1Cc2ccccc2C[C@H]1C(=O)N1CC2CCCCC2[C@H]1C(=O)NCC(=O)N[C@@H](CC(C)C)C(=O)N1Cc2ccccc2C[C@H]1C(=O)N1CC2CCCCC2[C@H]1C(=O)NCC(=O)N[C@@H](CCCCN)C(=O)N1Cc2ccccc2C[C@H]1C(=O)N1CC2CCCCC2[C@H]1C(=O)NCC(=O)N[C@@H](CC(C)C)C(=O)N1Cc2ccccc2C[C@H]1C(=O)N1CC2CCCCC2[C@H]1C(=O)NCC(=O)N[C@@H](CCCCN)C(=O)N1Cc2ccccc2C[C@H]1C(=O)N1CC2CCCCC2[C@H]1C(=O)NCC(=O)N[C@@H](CCCCN)C(=O)N[C@@H](CCCNC(=N)N)C(N)=O` (some centres not stated) (H-GKGL[Tic][Pro(3ξ,4ξ-(CH2)4)]GK[Tic][Pro(3ξ,4ξ-(CH2)4)]GL[Tic][Pro(3ξ,4ξ-(CH2)4)]GK[Tic][Pro(3ξ,4ξ-(CH2)4)]GL[Tic][Pro(3ξ,4ξ-(CH2)4)]GK[Tic][Pro(3ξ,4ξ-(CH2)4)]GKR-NH2), for which the hemolysis at 100 µM in data set [1] was 100%.

In the case of `CC(C)C[C@H](NC(=O)[C@@H]1C2CCCCC2CN1C(=O)[C@@H]1Cc2ccccc2CN1C(=O)CNC(=O)[C@H](CCCCN)NC(=O)CNC(=O)[C@@H]1C2CCCCC2CN1C(=O)[C@@H]1Cc2ccccc2CN1C(=O)[C@H](CO)NC(=O)[C@H](CC(C)C)NC(=O)[C@@H](N)CCC(=O)O)C(=O)N[C@@H](CCCCN)C(=O)N[C@@H](CCC(=O)O)C(=O)N[C@@H](CO)C(N)=O` (some centres not stated) (H-ELS[Tic][Pro(3ξ,4ξ-(CH2)4)]GKG[Tic][Pro(3ξ,4ξ-(CH2)4)]LKES-NH2), the hemolysis at 100 µM in data set [1] turned out to be 23%.

Turning to `CC(C)C[C@H](NC(=O)CNC(=O)[C@H](CCCCN)NC(=O)CN)C(=O)N1Cc2ccccc2C[C@H]1C(=O)N1CC2CCCCC2[C@H]1C(=O)NCC(=O)N[C@@H](CCCNC(=N)N)C(=O)N1Cc2ccccc2C[C@H]1C(=O)N1CC2CCCCC2[C@H]1C(=O)NCC(=O)N[C@@H](Cc1ccccc1)C(=O)N1Cc2ccccc2C[C@H]1C(=O)N1CC2CCCCC2[C@H]1C(=O)NCC(=O)N[C@@H](CCCNC(=N)N)C(=O)N1Cc2ccccc2C[C@H]1C(=O)N1CC2CCCCC2[C@H]1C(=O)NCC(=O)N[C@@H](Cc1ccccc1)C(=O)N1Cc2ccccc2C[C@H]1C(=O)N1CC2CCCCC2[C@H]1C(=O)NCC(=O)N[C@@H](CCCNC(=N)N)C(=O)N1Cc2ccccc2C[C@H]1C(=O)N1CC2CCCCC2[C@H]1C(=O)NCC(=O)N[C@@H](CCCCN)C(=O)N[C@@H](CCCNC(=N)N)C(N)=O` (some centres not stated) (H-GKGL[Tic][Pro(3ξ,4ξ-(CH2)4)]GR[Tic][Pro(3ξ,4ξ-(CH2)4)]GF[Tic][Pro(3ξ,4ξ-(CH2)4)]GR[Tic][Pro(3ξ,4ξ-(CH2)4)]GF[Tic][Pro(3ξ,4ξ-(CH2)4)]GR[Tic][Pro(3ξ,4ξ-(CH2)4)]GKR-NH2), in the data set on Mycobacterium, the outcome was inactive.

With `CC(C)C[C@@H](NC(=O)CNC(=O)[C@H](CCCCN)NC(=O)CN)C(=O)N1Cc2ccccc2C[C@H]1C(=O)N1CC2CCCCC2[C@H]1C(=O)N[C@@H](Cc1ccccc1)C(=O)N[C@@H](CCCN)C(=O)N1Cc2ccccc2C[C@H]1C(=O)N1CC2CCCCC2[C@H]1C(=O)N[C@H](CCCCN)C(=O)N[C@@H](Cc1ccccc1)C(=O)N1Cc2ccccc2C[C@H]1C(=O)N1CC2CCCCC2[C@H]1C(=O)N[C@@H](Cc1ccccc1)C(=O)N[C@@H](CCCCN)C(=O)N1Cc2ccccc2C[C@H]1C(=O)N1CC2CCCCC2[C@H]1C(=O)N[C@@H](CCCCN)C(=O)N[C@@H](Cc1ccccc1)C(=O)N1Cc2ccccc2C[C@H]1C(=O)N1CC2CCCCC2[C@H]1C(=O)N[C@H](Cc1ccccc1)C(=O)N[C@@H](CCCCN)C(=O)N1Cc2ccccc2C[C@H]1C(=O)N1CC2CCCCC2[C@H]1C(=O)N[C@@H](Cc1ccccc1)C(=O)N[C@@H](CCCCN)C(=O)N[C@@H](CCCNC(=N)N)C(N)=O` (some centres not stated), the result in the data set with Mycobacterium was inactive.

Turning to `CC(=O)NCC(=O)N[C@@H](Cc1ccccc1)C(=O)N1Cc2ccccc2C[C@H]1C(=O)N1[C@H](C(=O)NCC(=O)N[C@H](CCCCN)C(=O)N2Cc3ccccc3C[C@H]2C(=O)N2[C@H](C(=O)NCC(=O)N[C@@H](Cc3ccccc3)C(=O)N3Cc4ccccc4C[C@H]3C(=O)N3[C@H](C(=O)NCC(=O)N[C@H](CCCCN)C(=O)N4Cc5ccccc5C[C@H]4C(=O)N[C@@H](CCCCN)C(=O)N[C@@H](CCCCN)C(=O)N[C@@H](CCCCN)C(=O)N[C@@H](CCCCN)C(N)=O)C[C@@H]4CCCC[C@@H]43)C[C@@H]3CCCC[C@@H]32)C[C@@H]2CCCC[C@@H]21` (Ac-GF[Tic][Oic]G[dK][Tic][Oic]GF[Tic][Oic]G[dK][Tic]KKKK-NH2), the MIC against Salmonella typhimurium, with Mycobacterium and in the data set with Staphylococcus aureus was 10 µM (≈ 24.4 µg/mL) throughout.

For `CSCC[C@H](NC(=O)[C@H](CC(C)C)NC(=O)[C@H](CCC(=O)O)NC(=O)[C@@H]1C[C@@H]2CCCC[C@@H]2N1C(=O)[C@@H]1Cc2ccccc2CN1C(=O)[C@H](Cc1ccccc1)NC(=O)CNC(=O)[C@@H]1C[C@@H]2CCCC[C@@H]2N1C(=O)[C@@H]1Cc2ccccc2CN1C(=O)[C@H](CCCNC(=N)N)NC(=O)CNC(=O)[C@@H]1C[C@@H]2CCCC[C@@H]2N1C(=O)[C@@H]1Cc2ccccc2CN1C(=O)[C@H](Cc1ccccc1)NC(=O)CNC(=O)[C@@H]1C[C@@H]2CCCC[C@@H]2N1C(=O)[C@@H]1Cc2ccccc2CN1C(=O)[C@H](CCCNC(=N)N)NC(=O)CNC(=O)[C@@H]1C[C@@H]2CCCC[C@@H]2N1C(=O)[C@@H]1Cc2ccccc2CN1C(=O)[C@H](CC(C)C)NC(=O)CNC(=O)[C@H](CCCCN)NC(=O)CN)C(=O)N[C@@H](CC(N)=O)C(=O)N[C@@H](CO)C(N)=O` (H-GKGL[Tic][Oic]GR[Tic][Oic]GF[Tic][Oic]GR[Tic][Oic]GF[Tic][Oic]ELMNS-NH2), the hemolysis at 100 µM in data set [1] stood at 70%.

As to `CC(=O)NCC(=O)N[C@H](Cc1ccccc1)C(=O)N1Cc2ccccc2C[C@H]1C(=O)N1[C@H](C(=O)NCC(=O)N[C@@H](CCCCN)C(=O)N2Cc3ccccc3C[C@H]2C(=O)N2[C@H](C(=O)NCC(=O)N[C@H](Cc3ccccc3)C(=O)N3Cc4ccccc4C[C@H]3C(=O)N3[C@H](C(=O)NCC(=O)N[C@@H](CCCCN)C(=O)N4Cc5ccccc5C[C@H]4C(=O)N[C@@H](CCCCN)C(=O)N[C@@H](CCCCN)C(=O)N[C@@H](CCCCN)C(=O)N[C@@H](CCCCN)C(N)=O)C[C@@H]4CCCC[C@@H]43)C[C@@H]3CCCC[C@@H]32)C[C@@H]2CCCC[C@@H]21` (Ac-G[dF][Tic][Oic]GK[Tic][Oic]G[dF][Tic][Oic]GK[Tic]KKKK-NH2), the values for the MIC against Salmonella typhimurium, against Mycobacterium and against Staphylococcus aureus were 10 µM (≈ 24.4 µg/mL), 10 µM (≈ 24.4 µg/mL) and 3 µM (≈ 7.32 µg/mL), respectively.
